# Measurements published in PubChem BioAssay (NCI).
#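 Five concentrations, 48 hours, 96-well plates. TGI marks complete inhibition of growth.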
# Key:
# Assay in all cases: inhibition of tumour cell growth, NCI panel, 48 h
# 786-0 renal = test system: 786-0 renal
# A498 renal = test system: A498 renal
# A549 NSCLC = test system: A549 NSCLC
# ACHN renal = test system: ACHN renal
# BT-549 breast = test system: BT-549 breast
# CAKI-1 renal = test system: CAKI-1 renal
# CCRF-CEM leukemia = test system: CCRF-CEM leukemia
# COLO 205 colon = test system: COLO 205 colon
# DU-145 prostate = test system: DU-145 prostate
# EKVX NSCLC = test system: EKVX NSCLC
# HCC-2998 colon = test system: HCC-2998 colon
# HCT-116 colon = test system: HCT-116 colon
# HCT-15 colon = test system: HCT-15 colon
# HL-60(TB) leukemia = test system: HL-60(TB) leukemia
# HOP-62 NSCLC = test system: HOP-62 NSCLC
# HOP-92 NSCLC = test system: HOP-92 NSCLC
# HS 578T breast = test system: HS 578T breast
# HT29 colon = test system: HT29 colon
# IGROV1 ovarian = test system: IGROV1 ovarian
# K-562 leukemia = test system: K-562 leukemia
# KM12 colon = test system: KM12 colon
# LOX IMVI melanoma = test system: LOX IMVI melanoma
# M14 melanoma = test system: M14 melanoma
# MALME-3M melanoma = test system: MALME-3M melanoma
# MCF7 breast = test system: MCF7 breast
# MDA-MB-231 breast = test system: MDA-MB-231 breast
# MDA-MB-435 = test system: MDA-MB-435
# MDA-N = test system: MDA-N
# MOLT-4 leukemia = test system: MOLT-4 leukemia
# NCI-H23 lung = test system: NCI-H23 lung
# NCI-H460 lung = test system: NCI-H460 lung
# NCI-H522 lung = test system: NCI-H522 lung
# NCI/ADR-RES ovarian = test system: NCI/ADR-RES ovarian
# OVCAR-3 ovarian = test system: OVCAR-3 ovarian
# OVCAR-4 ovarian = test system: OVCAR-4 ovarian
# OVCAR-5 ovarian = test system: OVCAR-5 ovarian
# OVCAR-8 ovarian = test system: OVCAR-8 ovarian
# PC-3 prostate = test system: PC-3 prostate
# RPMI-8226 leukemia = test system: RPMI-8226 leukemia
# RXF 393 renal = test system: RXF 393 renal
# SF-268 CNS = test system: SF-268 CNS
# SF-295 CNS = test system: SF-295 CNS
# SF-539 CNS = test system: SF-539 CNS
# SK-MEL-2 melanoma = test system: SK-MEL-2 melanoma
# SK-MEL-28 melanoma = test system: SK-MEL-28 melanoma
# SK-MEL-5 melanoma = test system: SK-MEL-5 melanoma
# SK-OV-3 ovarian = test system: SK-OV-3 ovarian
# SN12C renal = test system: SN12C renal
# SNB-19 CNS = test system: SNB-19 CNS
# SNB-75 CNS = test system: SNB-75 CNS
# SR leukemia = test system: SR leukemia
# SW-620 colon = test system: SW-620 colon
# T-47D breast = test system: T-47D breast
# TK-10 renal = test system: TK-10 renal
# U251 CNS = test system: U251 CNS
# UACC-257 melanoma = test system: UACC-257 melanoma
# UACC-62 melanoma = test system: UACC-62 melanoma
# UO-31 renal = test system: UO-31 renal
# NCI-H226 lung = test system: NCI-H226 lung
compound,measurement,setting,value
C=C(CO)C(=O)OC1CC(=C)C2CC(O)C(C)C2C2OC(=O)C(=C)C12 (stereo not given),TGI,786-0 renal,> 100 µM
same,TGI,A498 renal,> 100 µM
same,TGI,A549 NSCLC,> 100 µM
same,TGI,ACHN renal,34 µM
same,TGI,BT-549 breast,32.3 µM
same,TGI,CAKI-1 renal,36.6 µM
same,TGI,CCRF-CEM leukemia,77.7 µM
same,TGI,COLO 205 colon,90.4 µM
same,TGI,DU-145 prostate,> 100 µM
same,TGI,EKVX NSCLC,> 100 µM
same,TGI,HCC-2998 colon,40.9 µM
same,TGI,HCT-116 colon,> 100 µM
same,TGI,HCT-15 colon,35 µM
same,TGI,HL-60(TB) leukemia,62.5 µM
same,TGI,HOP-62 NSCLC,46.5 µM
same,TGI,HOP-92 NSCLC,77.6 µM
same,TGI,HS 578T breast,47.5 µM
same,TGI,HT29 colon,53.9 µM
same,TGI,IGROV1 ovarian,39.3 µM
same,TGI,K-562 leukemia,82.2 µM
same,TGI,KM12 colon,33.6 µM
same,TGI,LOX IMVI melanoma,> 100 µM
same,TGI,M14 melanoma,33.4 µM
same,TGI,MALME-3M melanoma,41.7 µM
same,TGI,MCF7 breast,34.3 µM
same,TGI,MDA-MB-231 breast,36.2 µM
same,TGI,MDA-MB-435,45.2 µM
same,TGI,MDA-N,38 µM
same,TGI,MOLT-4 leukemia,64.6 µM
same,TGI,NCI-H23 lung,> 100 µM
same,TGI,NCI-H460 lung,> 100 µM
same,TGI,NCI-H522 lung,45.8 µM
same,TGI,NCI/ADR-RES ovarian,> 100 µM
same,TGI,OVCAR-3 ovarian,34.2 µM
same,TGI,OVCAR-4 ovarian,> 100 µM
same,TGI,OVCAR-5 ovarian,> 100 µM
same,TGI,OVCAR-8 ovarian,69.9 µM
same,TGI,PC-3 prostate,> 100 µM
same,TGI,RPMI-8226 leukemia,58.1 µM
same,TGI,RXF 393 renal,36.4 µM
same,TGI,SF-268 CNS,39.4 µM
same,TGI,SF-295 CNS,38.8 µM
same,TGI,SF-539 CNS,37.8 µM
same,TGI,SK-MEL-2 melanoma,32 µM
same,TGI,SK-MEL-28 melanoma,57.6 µM
same,TGI,SK-MEL-5 melanoma,50.9 µM
same,TGI,SK-OV-3 ovarian,> 100 µM
same,TGI,SN12C renal,32.7 µM
same,TGI,SNB-19 CNS,61.6 µM
same,TGI,SNB-75 CNS,45.6 µM
same,TGI,SR leukemia,51.2 µM
same,TGI,SW-620 colon,92.7 µM
same,TGI,T-47D breast,> 100 µM
same,TGI,TK-10 renal,33.2 µM
same,TGI,U251 CNS,64.2 µM
same,TGI,UACC-257 melanoma,32.7 µM
same,TGI,UACC-62 melanoma,35.3 µM
same,TGI,UO-31 renal,36.6 µM
C=CCN1C(=O)CC2[C@@H]3CCc4cc(O)ccc4C3CC[C@]2(C)C1=O (stereo not given in full),TGI,786-0 renal,> 10 µM
same,TGI,A498 renal,> 10 µM
same,TGI,A549 NSCLC,> 10 µM
same,TGI,ACHN renal,> 10 µM
same,TGI,BT-549 breast,> 10 µM
same,TGI,CAKI-1 renal,> 10 µM
same,TGI,CCRF-CEM leukemia,> 10 µM
same,TGI,COLO 205 colon,> 10 µM
same,TGI,DU-145 prostate,> 10 µM
same,TGI,EKVX NSCLC,> 10 µM
same,TGI,HCC-2998 colon,> 10 µM
same,TGI,HCT-116 colon,> 10 µM
same,TGI,HCT-15 colon,> 10 µM
same,TGI,HL-60(TB) leukemia,> 10 µM
same,TGI,HOP-62 NSCLC,> 10 µM
same,TGI,HOP-92 NSCLC,> 10 µM
same,TGI,HS 578T breast,> 10 µM
same,TGI,HT29 colon,> 10 µM
same,TGI,IGROV1 ovarian,> 10 µM
same,TGI,K-562 leukemia,> 10 µM
same,TGI,KM12 colon,> 10 µM
same,TGI,LOX IMVI melanoma,> 10 µM
same,TGI,M14 melanoma,> 10 µM
same,TGI,MALME-3M melanoma,> 10 µM
same,TGI,MCF7 breast,> 10 µM
same,TGI,MDA-MB-231 breast,> 10 µM
same,TGI,MDA-MB-435,> 10 µM
same,TGI,MDA-N,> 10 µM
same,TGI,MOLT-4 leukemia,> 10 µM
same,TGI,NCI-H226 lung,> 10 µM
same,TGI,NCI-H23 lung,> 10 µM
same,TGI,NCI-H460 lung,> 10 µM
same,TGI,NCI/ADR-RES ovarian,> 10 µM
same,TGI,OVCAR-3 ovarian,> 10 µM
same,TGI,OVCAR-4 ovarian,> 10 µM
same,TGI,OVCAR-5 ovarian,> 10 µM
same,TGI,OVCAR-8 ovarian,> 10 µM
same,TGI,PC-3 prostate,> 10 µM
same,TGI,RPMI-8226 leukemia,> 10 µM
same,TGI,RXF 393 renal,> 10 µM
same,TGI,SF-268 CNS,> 10 µM
same,TGI,SF-295 CNS,> 10 µM
same,TGI,SF-539 CNS,> 10 µM
same,TGI,SK-MEL-2 melanoma,> 10 µM
same,TGI,SK-MEL-28 melanoma,> 10 µM
same,TGI,SK-MEL-5 melanoma,> 10 µM
same,TGI,SK-OV-3 ovarian,> 10 µM
same,TGI,SN12C renal,> 10 µM
same,TGI,SNB-19 CNS,> 10 µM
same,TGI,SR leukemia,> 10 µM
same,TGI,SW-620 colon,> 10 µM
same,TGI,T-47D breast,> 10 µM
same,TGI,TK-10 renal,> 10 µM
same,TGI,U251 CNS,> 10 µM
same,TGI,UACC-257 melanoma,> 10 µM
same,TGI,UACC-62 melanoma,> 10 µM
same,TGI,UO-31 renal,> 10 µM
